The values that follow come from patent publication US10894768B2, “Salt of (R)-(1-methylpyrrolidine-3-yl)methyl(3′-chloro-4′-fluoro-[1,1′-biphenyl]-2-yl)carbamate and crystal form thereof” (Dong-A St Co., Ltd., priority 2016, dated 2021).

What all share (type): physicochemical
Data set [1] in a line: Accelerated stability in the solid state (accelerated test, 40° C./RH 75%). The note with it: for Property / Relative purity (%): 40° C./RH 75%; for Change in purity / Physical state: under the accelerated condition. Here is the method:
(§1) 4. Liquid Chromatography (HPLC)
(§2) Detector: Ultraviolet absorptiometer (detection wavelength of 244 nm)
(§3) Column: Waters, XBridge C18, 4.6*150 mm, 5 um
(§4) Column temperature: 40° C.
(§5) Mobile phase buffer: A 0.01M (NH4)HCO3 solution was prepared and adjusted to pH 10.5 by means of ammonia water.
(§6) Mobile phase A: Buffer:Acetonitrile=8:2
(§7) Mobile phase B: Acetonitrile
(§8) Sample solution: 1.0 mg/mL in 50% methanol

Data set [2] in a line: Stress stability in a solid state (stress test). Here is the method: as §1, §2, §3, §4, §5, §6, §7, §8
The nature of data set [3]: Accelerated and stress stability of forms I, II and III. Conditions: for Crystal form / Relative purity (%): oxalate; for Stability: under the accelerated and stress conditions. How it is done:
X-ray powder diffraction (XRPD) pattern was obtained by means of a solid-phase detector of BRUKER D8 ADVANCE model using CuKα radiation at 1.54178 Å (40 kV, 40 mA). An analysis was performed through measurement at an angle 2θ in a range of 3° to 50° with a step size of 0.02°.
as §1, §2, §3, §4, §5, §6, §7, §8
The accelerated test (accelerated condition: 40° C./RH 75%) and the stress test (stress condition: 60° C.) were performed on the form I of (R)-(1-methylpyrrolidine-3-yl)methyl(3′-chloro-4′-fluoro-[1,1′-biphenyl]-2-yl)carbamate oxalate prepared in Example 2 above and the form II of (R)-(1-methylpyrrolidine-3-yl)methyl(3′-chloro-4′-fluoro-[1,1′-biphenyl]-2-yl)carbamate oxalate and the form III of (R)-(1-methylpyrrolidine-3-yl)methyl(3′-chloro-4′-fluoro-[1,1′-biphenyl]-2-yl)carbamate oxalate prepared in Examples 3 and 9, wherein analysis results thereof were shown in Table 3.

On to `CN1CC[C@@H](COC(=O)Nc2ccccc2-c2ccc(F)c(Cl)c2)C1.O=P(O)(O)O` [Phosphate], for which the Property result in data set [1] (Week 1) is reported as “Dissolved”; in data set [1] (Week 2) it was “Dissolved”; in data set [1] (Week 3), “Dissolved”; in data set [1] (Week 4), “Dissolved”; in data set [1] (initial), “Solid”; in data set [2] (60° C., Week 1), “Dissolved”. Further, the Property entry in data set [2] (60° C., Week 2) is reported as “Dissolved”; in data set [2] (RH 90%, Week 1) it was “Dissolved”; in data set [2] (RH 90%, Week 2), “Dissolved”; in data set [2] (initial), “Solid”. Moreover, the “Relative purity (%)” value in data set [1] (Week 1) stood at 98.3%; in data set [1] (Week 2), 98.3%; in data set [1] (Week 3), 98.4%; in data set [1] (Week 4), 98.4%; in data set [1] (initial) it was 98.4%. Moreover, the Change in purity entry in data set [1] and in data set [2] (under the stress condition) was “do not show a change in purity” each time. Moreover, the Physical state result in data set [1] is on record as “show a melting phenomenon”. Moreover, the Relative purity in data set [2] (60° C., Week 1) is given as 98.4/ %; in data set [2] (60° C., Week 2), 98.4/ %; in data set [2] (RH 90%, Week 1) it was 98.4/ %; in data set [2] (RH 90%, Week 2), 98.4/ %; in data set [2] (initial), 98.4/ %.

In the case of `CN1CC[C@@H](COC(=O)Nc2ccccc2-c2ccc(F)c(Cl)c2)C1.O=C(O)C(=O)O` [form II, (R)-(1-methylpyrrolidine-3-yl)methyl(3′-chloro-4′-fluoro-[1,1′-biphenyl]-2-yl)carbamate oxalate], the Crystal form result in data set [3] (40° C./RH 75% Week 1), in data set [3] (40° C./RH 75% Week 3), in data set [3] (60° C. Week 1), in data set [3] (60° C. Week 3) and in data set [3] (Early) was “form II” throughout. The “Relative purity (%)” value in data set [3] (40° C./RH 75% Week 1) was determined as 99.83%; in data set [3] (40° C./RH 75% Week 3), 99.81%; in data set [3] (60° C. Week 1) it was 99.85%; in data set [3] (60° C. Week 3), 99.79%; in data set [3] (Early), 99.87%. The Stability result in data set [3] is “stable”.

Take `CN1CC[C@@H](COC(=O)Nc2ccccc2-c2ccc(F)c(Cl)c2)C1.O=C(O)C(=O)O` [form I, (R)-(1-methylpyrrolidine-3-yl)methyl(3′-chloro-4′-fluoro-[1,1′-biphenyl]-2-yl)carbamate oxalate]: the Crystal form entry in data set [3] (40° C./RH 75% Week 1), in data set [3] (40° C./RH 75% Week 3), in data set [3] (60° C. Week 1), in data set [3] (60° C. Week 3) and in data set [3] (Early) was “form I” throughout. Further, the “Relative purity (%)” value in data set [3] (40° C./RH 75% Week 1) is given as 99.55%; in data set [3] (40° C./RH 75% Week 3), 99.60%; in data set [3] (60° C. Week 1), 99.71%; in data set [3] (60° C. Week 3), 99.61%; in data set [3] (Early), 99.66%. The Stability entry in data set [3] is given as “stable”.

`CN1CC[C@@H](COC(=O)Nc2ccccc2-c2ccc(F)c(Cl)c2)C1.O=C(O)C(=O)O` [form III, (R)-(1-methylpyrrolidine-3-yl)methyl(3′-chloro-4′-fluoro-[1,1′-biphenyl]-2-yl)carbamate oxalate]: the Crystal form entry in data set [3] (40° C./RH 75% Week 1), in data set [3] (40° C./RH 75% Week 3), in data set [3] (60° C. Week 1), in data set [3] (60° C. Week 3) and in data set [3] (Early) was “form III” each time. The “Relative purity (%)” value in data set [3] (40° C./RH 75% Week 1) stood at 99.79%; in data set [3] (40° C./RH 75% Week 3) it was 99.80%; in data set [3] (60° C. Week 1), 99.82%; in data set [3] (60° C. Week 3), 99.79%; in data set [3] (Early), 99.81%. The Stability entry in data set [3] is recorded as “stable”.

On to `CN1CC[C@@H](COC(=O)Nc2ccccc2-c2ccc(F)c(Cl)c2)C1.O=C(O)C(=O)O` [Oxalate, (R)-(1-methylpyrrolidine-3-yl)methyl(3′-chloro-4′-fluoro-[1,1′-biphenyl]-2-yl)carbamate oxalate], for which the Property result is reported as “Solid” in data set [1] (Week 1); “Solid” in data set [1] (Week 2); “Solid” in data set [1] (Week 3); “Solid” in data set [1] (Week 4); “Solid” in data set [1] (initial); “Solid” in data set [2] (60° C., Week 1). Moreover, the Property result in data set [2] (60° C., Week 2) is reported as “Solid”; in data set [2] (RH 90%, Week 1) it was “Solid”; in data set [2] (RH 90%, Week 2), “Solid”; in data set [2] (initial), “Solid”. The “Relative purity (%)” value in data set [1] (Week 1), in data set [1] (Week 2), in data set [1] (Week 3), in data set [1] (Week 4) and in data set [1] (initial) was 99.3% each time. Moreover, the Change in purity entry in data set [1] and in data set [2] (under the stress condition) was “do not show a change in purity” each time. Besides, the Relative purity in data set [2] (60° C., Week 1) was 99.3/ %; in data set [2] (60° C., Week 2), 99.4/ %; in data set [2] (RH 90%, Week 1), 99.3/ %; in data set [2] (RH 90%, Week 2), 99.4/ %; in data set [2] (initial) it was 99.3/ %. In data set [2] (under the stress condition), the Physical state result was “kept in an unmelted state”.

Take “(R)-(1-methylpyrrolidine-3-yl)methyl(3′-chloro-4′-fluoro-[1,1′-biphenyl]-2-yl)carbamate citrate”: the Property result is recorded as “Solid” in data set [1] (Week 1); “Solid” in data set [1] (Week 2); “Dissolved” in data set [1] (Week 3); “Dissolved” in data set [1] (Week 4); “Solid” in data set [1] (initial); “Dissolved” in data set [2] (60° C., Week 1). The Property result is on record as “Dissolved” in data set [2] (60° C., Week 2); “Dissolved” in data set [2] (RH 90%, Week 1); “Dissolved” in data set [2] (RH 90%, Week 2); “Solid” in data set [2] (initial). In addition, the “Relative purity (%)” value in data set [1] (Week 1) amounted to 97.7%; in data set [1] (Week 2) it was 97.6%; in data set [1] (Week 3) it was 97.7%; in data set [1] (Week 4), 97.4%; in data set [1] (initial), 97.7%. Also, the Change in purity result in data set [1] and in data set [2] (under the stress condition) was “do not show a change in purity” each time. In addition, the Physical state result in data set [1] is given as “show a melting phenomenon”. For the same molecule, the Relative purity is on record as 97.8/ % in data set [2] (60° C., Week 1); 97.9/ % in data set [2] (60° C., Week 2); 97.7/ % in data set [2] (RH 90%, Week 1); 97.7/ % in data set [2] (RH 90%, Week 2); 97.7/ % in data set [2] (initial).
